Assay results published in patent US10669242B2 (priority 2016, dated 2020).
“Also recorded” adds a separate entry of the source.

Assays:
[1] = test system: C. difficile toxin (TcdA and TcdB, ~1:1); assay: Murine C. difficile toxin model (intrarectal toxin); assay type: in vivo, C57BL/6 mice; conditions: for IL-1β (% Inhibition) / MPO (% Inhibition): murine C. difficile toxin model, PO, 50 mg/kg body weight
C. difficile = assay type: in vivo, C57/BL6 mice; conditions: relapse model; for weight loss, days 8-9 after infection: PO, vancomycin 20 mg/kg once per day for five days
[2] = biological target: T1, C. difficile full-length toxin TcdA (Clostridioides difficile, UniProt P16154); assay: cell-based
T1 construct: C. difficile full-length toxins (TcdA or TcdB); purchased Enzo Life Sciences BML-G140-0050

[3] = biological target: T2, recombinant glucosyltransferase domain of C. difficile Toxin B/TcdB (Clostridioides difficile, UniProt P18177); assay: biochemical
T2 construct: 6-His (C); purchased R&D Systems 6246-GT

[4] = oral (PO), 50 mg/kg, intrarectal toxin 12.5 μg
[5] = intraperitoneal (IP), 50 mg/kg, intrarectal toxin 12.5 μg
[6] = intrarectal (IR) co-administration with toxin (12.5 μg), 25 mg/kg, ~12.5 mg/kg, 4 hours

T1 sequence (P16154 whole entry, looked up): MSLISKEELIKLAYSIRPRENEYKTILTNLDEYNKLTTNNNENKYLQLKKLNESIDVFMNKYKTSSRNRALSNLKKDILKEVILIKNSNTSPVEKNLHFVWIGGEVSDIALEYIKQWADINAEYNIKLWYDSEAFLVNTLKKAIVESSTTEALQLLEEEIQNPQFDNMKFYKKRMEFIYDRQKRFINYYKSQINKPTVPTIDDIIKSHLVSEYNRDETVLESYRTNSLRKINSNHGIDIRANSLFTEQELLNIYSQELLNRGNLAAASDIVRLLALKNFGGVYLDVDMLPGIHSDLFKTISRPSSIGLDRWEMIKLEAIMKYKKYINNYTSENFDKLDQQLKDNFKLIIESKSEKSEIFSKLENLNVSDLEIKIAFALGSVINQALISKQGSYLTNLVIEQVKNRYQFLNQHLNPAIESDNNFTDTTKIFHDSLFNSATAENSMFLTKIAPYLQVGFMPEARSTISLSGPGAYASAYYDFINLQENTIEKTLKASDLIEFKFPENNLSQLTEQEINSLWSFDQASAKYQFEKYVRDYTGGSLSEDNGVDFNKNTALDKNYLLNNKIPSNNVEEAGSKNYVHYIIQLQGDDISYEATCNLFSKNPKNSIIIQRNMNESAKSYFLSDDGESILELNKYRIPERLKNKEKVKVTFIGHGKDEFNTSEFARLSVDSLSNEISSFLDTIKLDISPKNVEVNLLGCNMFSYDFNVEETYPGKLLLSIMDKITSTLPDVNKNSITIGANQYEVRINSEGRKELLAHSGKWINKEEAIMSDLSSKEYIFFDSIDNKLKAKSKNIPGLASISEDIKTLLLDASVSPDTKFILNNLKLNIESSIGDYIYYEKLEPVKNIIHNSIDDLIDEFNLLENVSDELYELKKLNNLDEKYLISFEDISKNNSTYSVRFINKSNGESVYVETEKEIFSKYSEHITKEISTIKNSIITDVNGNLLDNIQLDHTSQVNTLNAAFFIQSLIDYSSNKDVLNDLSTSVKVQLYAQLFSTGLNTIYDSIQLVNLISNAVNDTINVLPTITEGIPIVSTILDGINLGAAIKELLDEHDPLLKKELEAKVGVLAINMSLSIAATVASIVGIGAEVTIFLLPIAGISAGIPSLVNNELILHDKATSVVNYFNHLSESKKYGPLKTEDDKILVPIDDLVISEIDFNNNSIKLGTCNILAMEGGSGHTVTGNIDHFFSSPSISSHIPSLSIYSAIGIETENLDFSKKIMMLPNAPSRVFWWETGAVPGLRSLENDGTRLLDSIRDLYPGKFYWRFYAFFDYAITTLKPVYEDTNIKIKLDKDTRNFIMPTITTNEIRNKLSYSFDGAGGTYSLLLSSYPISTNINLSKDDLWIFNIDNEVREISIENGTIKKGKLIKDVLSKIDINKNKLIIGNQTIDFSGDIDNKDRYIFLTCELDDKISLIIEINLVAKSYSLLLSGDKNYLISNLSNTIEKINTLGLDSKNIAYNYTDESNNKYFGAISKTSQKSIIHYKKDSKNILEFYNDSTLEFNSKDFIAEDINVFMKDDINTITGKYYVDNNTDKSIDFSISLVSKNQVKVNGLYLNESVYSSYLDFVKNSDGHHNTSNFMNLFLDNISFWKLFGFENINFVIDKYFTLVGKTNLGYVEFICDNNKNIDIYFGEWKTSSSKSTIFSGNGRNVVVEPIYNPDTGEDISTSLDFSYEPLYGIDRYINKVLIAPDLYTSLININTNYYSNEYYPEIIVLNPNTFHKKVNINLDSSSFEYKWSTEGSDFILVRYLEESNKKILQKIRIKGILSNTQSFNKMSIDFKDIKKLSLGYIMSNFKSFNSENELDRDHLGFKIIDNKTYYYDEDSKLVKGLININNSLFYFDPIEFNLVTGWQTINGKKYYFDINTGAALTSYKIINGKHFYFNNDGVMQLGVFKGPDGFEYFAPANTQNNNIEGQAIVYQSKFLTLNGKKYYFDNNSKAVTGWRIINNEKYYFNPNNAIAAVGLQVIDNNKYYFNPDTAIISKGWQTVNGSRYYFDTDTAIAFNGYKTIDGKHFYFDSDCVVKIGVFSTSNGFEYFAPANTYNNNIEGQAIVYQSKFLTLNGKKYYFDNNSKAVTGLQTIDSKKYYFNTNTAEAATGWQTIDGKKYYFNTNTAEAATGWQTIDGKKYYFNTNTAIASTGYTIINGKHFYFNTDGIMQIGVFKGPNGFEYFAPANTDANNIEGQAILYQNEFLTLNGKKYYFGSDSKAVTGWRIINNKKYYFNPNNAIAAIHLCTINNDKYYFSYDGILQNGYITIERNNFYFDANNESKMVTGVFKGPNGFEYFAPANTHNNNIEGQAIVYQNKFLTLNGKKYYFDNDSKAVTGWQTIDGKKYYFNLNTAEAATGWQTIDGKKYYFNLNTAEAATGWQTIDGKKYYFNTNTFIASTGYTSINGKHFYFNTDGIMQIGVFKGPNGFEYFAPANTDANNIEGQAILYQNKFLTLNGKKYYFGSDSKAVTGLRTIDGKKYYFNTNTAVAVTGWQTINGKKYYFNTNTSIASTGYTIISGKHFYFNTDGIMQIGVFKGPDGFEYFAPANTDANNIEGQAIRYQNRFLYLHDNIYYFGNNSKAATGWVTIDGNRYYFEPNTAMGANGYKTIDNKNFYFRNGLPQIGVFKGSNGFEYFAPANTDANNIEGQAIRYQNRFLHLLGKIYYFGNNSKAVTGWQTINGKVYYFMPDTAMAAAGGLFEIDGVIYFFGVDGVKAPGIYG
T2 sequence (P18177 1-543): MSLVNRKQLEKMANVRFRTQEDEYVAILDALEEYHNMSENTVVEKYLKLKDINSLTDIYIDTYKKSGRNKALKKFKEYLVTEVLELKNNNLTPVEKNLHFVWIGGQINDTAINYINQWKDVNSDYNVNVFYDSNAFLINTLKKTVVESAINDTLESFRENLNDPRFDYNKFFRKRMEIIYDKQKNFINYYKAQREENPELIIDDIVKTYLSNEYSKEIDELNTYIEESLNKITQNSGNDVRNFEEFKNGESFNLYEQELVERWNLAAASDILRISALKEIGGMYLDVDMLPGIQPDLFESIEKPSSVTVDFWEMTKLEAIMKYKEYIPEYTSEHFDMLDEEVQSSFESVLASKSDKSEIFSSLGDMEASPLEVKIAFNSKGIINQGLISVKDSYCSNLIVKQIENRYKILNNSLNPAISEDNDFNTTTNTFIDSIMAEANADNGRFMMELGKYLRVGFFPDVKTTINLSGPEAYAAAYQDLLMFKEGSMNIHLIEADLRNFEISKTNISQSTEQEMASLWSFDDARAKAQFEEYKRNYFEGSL

SMILES	IL-1β (% Inhibition) [1]	MPO (% Inhibition) [1]	IL-1β in colon tissue [1, 4]	MPO in colon tissue [1, 4]	toxin effect on colon length [1, 4]	mice that died/expired on Days 8-9 (C. difficile; 8 mice per group)	relapsing disease (C. difficile; 8 mice per group)	mice euthanized due to body weight loss of >20% (C. difficile; Day 4, 8 mice per group)	weight loss, days 8-9 after infection (C. difficile)	IC50 [2]	IC50 [3]	IL-1β in colon tissue [1, 5]	MPO in colon tissue [1, 5]	toxin effect on colon length [1, 5]	toxin effect on colon length [1, 6]	toxin-induced IL-1β in colon tissue [1, 6]	toxin-induced MPO in colon tissue [1, 6]	colon histopathology ([1]; oral (PO), intrarectal toxin 12.5 μg)
O=C(Nc1ccc(C(F)(F)F)cn1)c1ccc(CN2C(=O)c3ccc(Cl)cc3NC(=O)[C@H]2Cc2ccccn2)cc1Cl [Example 5ae, (R)-2-Chloro-4-((8-chloro-2,5-dioxo-3-(pyridin-2-ylmethyl)-2,3-dihydro-1H-benzo[e][1,4]diazepin-4(5H)-yl)methyl)-N-(5-(trifluoromethyl)pyridin-2-yl)benzamide]	81%	79%	reduced the levels of IL-1β	reduced	reduced the C. difficile toxin-mediated effects on colon length	none	prevention of relapsing disease	1	significantly reduced weight loss 8.0, 8.5 and 9.0 days after infection	1000 to 10000 nM	< 100 nM							
COc1ccc(NC(=O)c2ccc(CN3C(=O)c4ccc(Cl)cc4NC(=O)[C@H]3Cc3ccccn3)cc2F)nc1 [Example 6a, (R)-4-((8-Chloro-2,5-dioxo-3-(pyridin-2-ylmethyl)-2,3-dihydro-1H-benzo[e][1,4]diazepin-4(5H)-yl)methyl)-2-fluoro-N-(5-methoxypyridin-2-yl)benzamide]	80%	81%	decreased the C. difficile toxin-induced IL-1β; also recorded: reduced the levels of IL-1β; also recorded: reduced the concentrations of IL-1β	decreased; also recorded: reduced	reduced the C. difficile toxin-mediated effects on colon length; also recorded: effective in reducing the C. difficile toxin effects on colon length	none	prevention of relapsing disease		significantly reduced weight loss 8.0, 8.5 and 9.0 days after infection	100 to 999 nM	< 100 nM	decreased the C. difficile toxin-induced IL-1β; also recorded: reduced the concentrations of IL-1β	decreased; also recorded: reduced	reduced the C. difficile toxin-mediated effects on colon length; also recorded: effective in reducing the C. difficile toxin effects on colon length	reduced the C. difficile toxin-mediated effects on colon length	decreased the C. difficile toxin-induced IL-1β	decreased	prevention of tissue damage; also recorded: improved the colon histopathology
